Results on 14 molecules are retold here after patent US4746675A, “External pharmaceutical composition” (Teijin Limited, priority 1983, dated 1988).

In one data set the test system is carrageenan edema. Put plainly: carrageenan edema inhibiting effect of betamethasone valerate ointments. Type of data set: in vivo, rat. Particulars: Table 5, betamethasone valerate ointment with penetration enhancer. The protocol:
An ointment was prepared from 0.15 part by weight of betamethasone valerate, 9.85 parts by weight of compound (168) and 90 parts by weight of the hydrophilic ointment.
In accordance with the method of R. Passarella et al. [Argneim. Forsch 30, (I), Nr. 4, 647-651 (1980)], the carrageenan edema inhibiting effect of the above ointment was examined. Specifically, 0.1 ml of a 1% carrageenan suspension in 0.9% NaCl solution was injected into the tip of the right leg of a rat (body weight 150-175 g). The foot volume was measured immediately after administration of carrageenan and 3, 5, and 6 hours after the administration by means of a mercury displacement device. 0.5, 1 and 2 hours after the administration of carrageenan, 100 mg of the ointment was well […] into each of the sites which underwent inflammation.
Various ointments were prepared from 0.15 part by weight of betamethasone valerate, […] of the various penetration enhancers shown in Table 5, and 85 parts by weight of the hydrophilic ointment, and tested in the same way as in Example 23.

Data set [1] has as its system eye (cornea, iris, conjunctiva). Put plainly: primary eye irritation (Draize) in rabbits. The format is in vivo, white native male rabbits. Particulars: for Primary irritation score, Conjunctiva / Primary irritation score, Cornea / Primary irritation score, Iris / Primary irritation score, Total: average of three rabbits. The protocol:
enhancers of this invention shown in Table 17 was applied dropwise to one eye of white native male rabbits (body weight 2.0 to 3.0 kg; 3 per group) which, it had been ascertained, were free from any trouble at the cornea, iris and conjunctiva. Nothing was applied to the other eye. Thus, irritation of the absorption aid to the mucous membrane of the eyes were examined, and scores were calculated in accordance with the Draize's eye irritation evaluating method [Association of Foods, "Drugs and Cosmetics" (1957)].
As a control, sodium laurylsulfate, a kind of surface-active agent, was evaluated in the same way, and the results are also shown in Table 17.

Each structure is given as a SMILES string.

In the case of `CCCCCCOCC(O)COC(=O)[C@@H]1CCC(=O)N1` (some centres unmarked) [Compound (104), 3-hexyloxy-2-hydroxy-1-pyroglutamyloxypropane], the “Percentage inhibition vs. control” value in the data set with carrageenan edema (3 hrs) amounted to 18.3%; in the data set with carrageenan edema (5 hrs), 35.3%; in the data set with carrageenan edema (6 hrs), 37.0%.

Regarding `CCCCCCCCCCCCCCCCCCOCC(O)COC(=O)[C@@H]1CCC(=O)N1` (some centres unmarked) [Compound (112), 2-hydroxy-3-octadecyloxy-1-pyroglutamyloxypropane], the figures for the “Percentage inhibition vs. control” value with carrageenan edema (3 hrs), in the data set with carrageenan edema (5 hrs) and in the data set with carrageenan edema (6 hrs) were 17.8%, 32.2% and 33.0%, respectively.

In the case of `CCCCCCCCOCC(COC(=O)[C@@H]1CCC(=O)N1)OCCCCCCCC` (some centres unmarked) [Compound (122), 2,3-dioctyloxy-1-pyroglutamyloxypropane], the “Percentage inhibition vs. control” value came to 20.2% with carrageenan edema (3 hrs), 36.5% with carrageenan edema (5 hrs) and 38.3% in the data set with carrageenan edema (6 hrs).

As to `CCCCCCCCCCCCCCCCCCOCC(COC(=O)[C@@H]1CCC(=O)N1)OCCCCCCCCCCCCCCCCCC` (some centres unmarked) [Compound (124), 2,3-dioctadecyloxy-1-pyroglutamyloxypropane], the “Percentage inhibition vs. control” value is on record as 19.5% in the data set on carrageenan edema (3 hrs), 37.8% in the data set on carrageenan edema (5 hrs) and 36.6% in the data set with carrageenan edema (6 hrs).

`CCCCCCCC=CCCCCCCCCOCC(COC(=O)[C@@H]1CCC(=O)N1)OCCCCCCCCC=CCCCCCCC` (some centres unmarked) [Compound (142), 2,3-di(9-heptadecenyloxy)-1-pyroglutamyloxypropane]: the “Percentage inhibition vs. control” value with carrageenan edema (3 hrs) is reported as 16.5%; in the data set on carrageenan edema (5 hrs), 34.6%; in the data set on carrageenan edema (6 hrs) it was 34.0%.

Consider `CCCCC(=O)OCC(O)COC(=O)[C@@H]1CCC(=O)N1` (some centres unmarked) [Compound (156), 2-hydroxy-3-valeryloxy-1-pyroglutamyloxypropane], for which the figures for the “Percentage inhibition vs. control” value in the data set on carrageenan edema (3 hrs), in the data set on carrageenan edema (5 hrs) and in the data set on carrageenan edema (6 hrs) were 18.6%, 35.1% and 34.3%, respectively.

As for `CCCCC(=O)OCC(COC(=O)[C@@H]1CCC(=O)N1)OC(=O)CCCC` (some centres unmarked) [Compound (158), 2,3-divaleryloxy-1-pyroglutamyloxypropane], the “Percentage inhibition vs. control” value with carrageenan edema (3 hrs) was 18.0%; in the data set with carrageenan edema (5 hrs), 36.0%; in the data set with carrageenan edema (6 hrs), 36.1%.

In the case of `CCCCCCCC(=O)OCC(O)COC(=O)[C@@H]1CCC(=O)N1` (some centres unmarked) [Compound (160), 2-hydroxy-3-octanoyloxy-1-pyroglutamyloxypropane], the figures for the “Percentage inhibition vs. control” value with carrageenan edema (3 hrs), in the data set with carrageenan edema (5 hrs) and in the data set on carrageenan edema (6 hrs) were 17.7%, 30.8% and 29.9%, respectively.

As to `CCCCCCCC/C=C\CCCCCCCC(=O)OCC(COC(=O)C1CCC(=O)N1)OC(=O)CCCCCCC/C=C\CCCCCCCC` (centres unmarked) [Compound (170), 2,3,-dioleoyloxy-1-pyroglutamyloxypropane], the “Percentage inhibition vs. control” value in the data set with carrageenan edema (3 hrs) was 17.9%; with carrageenan edema (5 hrs), 33.4%; with carrageenan edema (6 hrs), 36.2%.

Turning to `CCC=CC(=O)OCC(O)COC(=O)[C@@H]1CCC(=O)N1` (some centres unmarked) [Compound (184), 2-hydroxy-3(2-pentenoyloxy)-1-pyroglutamyloxypropane], the entries for the “Percentage inhibition vs. control” value with carrageenan edema (3 hrs), in the data set on carrageenan edema (5 hrs) and in the data set on carrageenan edema (6 hrs) were 19.0%, 35.3% and 35.5%, respectively.

For `CCCCCCCCCCC=CCCCCCCCCCC(=O)OCC(O)COC(=O)[C@@H]1CCC(=O)N1` (some centres unmarked) [Compound (192), 3-(11-docosenoyloxy)-2-hydroxy-1-pyroglutamyloxypropane], the results for the “Percentage inhibition vs. control” value in the data set with carrageenan edema (3 hrs), in the data set on carrageenan edema (5 hrs) and with carrageenan edema (6 hrs) were 19.5%, 36.7% and 30.8%, respectively.

Consider `CC1(C)OCC(COC(=O)C2CCC(=O)N2)O1` (centres unmarked) [Compound (202), 2,3-dioxo-(dimethyl)methylene-1-pyroglutamyloxypropane], for which the “Percentage inhibition vs. control” value stood at 17.7% with carrageenan edema (3 hrs), 39.6% with carrageenan edema (5 hrs) and 36.1% in the data set on carrageenan edema (6 hrs).

Take `CCCCCCCCCCCCCCCC1OCC(COC(=O)C2CCC(=O)N2)O1` (centres unmarked) [Compound (220), 2,3-dioxo-(pentadecyl)methylene-1-pyroglutamyloxypropane]: the “Percentage inhibition vs. control” value came to 16.6% with carrageenan edema (3 hrs), 29.7% with carrageenan edema (5 hrs) and 29.8% with carrageenan edema (6 hrs).

In the case of `CCCCCCCCCCCCOS(=O)(=O)[O-].[Na+]` [Sodium Laurylsulfate, sodium laurylsulfate, reference compound], the “Primary irritation score, Conjunctiva” value in data set [1] (0.1% soln, 1 hour) was 4.0; in data set [1] (0.1% soln, 3 hours), 4.0; in data set [1] (0.1% soln, 6 hours), 0; in data set [1] (0.1% soln, 24 hours), 0; in data set [1] (0.1% soln, 48 hours), 0; in data set [1] (0.1% soln, 72 hours), 0. Besides, the “Primary irritation score, Conjunctiva” value in data set [1] (0.1% soln, 96 hours) is recorded as 0; in data set [1] (0.1% soln, 168 hours), 0; in data set [1] (2.4% soln, 1 hour) it was 13.3; in data set [1] (2.4% soln, 3 hours), 12.7; in data set [1] (2.4% soln, 6 hours), 11.3; in data set [1] (2.4% soln, 24 hours) it was 8.0. Further, the “Primary irritation score, Conjunctiva” value was found to be 4.0 in data set [1] (2.4% soln, 48 hours); 2.7 in data set [1] (2.4% soln, 72 hours); 2.0 in data set [1] (2.4% soln, 96 hours); 0.7 in data set [1] (2.4% soln, 168 hours). In addition, the “Primary irritation score, Cornea” value in data set [1] (0.1% soln, 1 hour) was determined as 0; in data set [1] (0.1% soln, 3 hours), 0; in data set [1] (0.1% soln, 6 hours), 0; in data set [1] (0.1% soln, 24 hours), 0; in data set [1] (0.1% soln, 48 hours), 0; in data set [1] (0.1% soln, 72 hours) it was 0. Moreover, the “Primary irritation score, Cornea” value is 0 in data set [1] (0.1% soln, 96 hours); 0 in data set [1] (0.1% soln, 168 hours); 0 in data set [1] (2.4% soln, 1 hour); 0 in data set [1] (2.4% soln, 3 hours); 0 in data set [1] (2.4% soln, 6 hours); 0 in data set [1] (2.4% soln, 24 hours). Further, the “Primary irritation score, Cornea” value in data set [1] (2.4% soln, 48 hours) came out at 0; in data set [1] (2.4% soln, 72 hours), 0; in data set [1] (2.4% soln, 96 hours) it was 0; in data set [1] (2.4% soln, 168 hours), 0. The “Primary irritation score, Iris” value in data set [1] (0.1% soln, 1 hour) stood at 0; in data set [1] (0.1% soln, 3 hours), 0; in data set [1] (0.1% soln, 6 hours) it was 0; in data set [1] (0.1% soln, 24 hours), 0; in data set [1] (0.1% soln, 48 hours), 0; in data set [1] (0.1% soln, 72 hours), 0. For the same molecule, the “Primary irritation score, Iris” value in data set [1] (0.1% soln, 96 hours) was determined as 0; in data set [1] (0.1% soln, 168 hours), 0; in data set [1] (2.4% soln, 1 hour), 5.0; in data set [1] (2.4% soln, 3 hours) it was 0; in data set [1] (2.4% soln, 6 hours), 0; in data set [1] (2.4% soln, 24 hours), 0. In addition, the “Primary irritation score, Iris” value in data set [1] (2.4% soln, 48 hours) is 0; in data set [1] (2.4% soln, 72 hours), 0; in data set [1] (2.4% soln, 96 hours), 0; in data set [1] (2.4% soln, 168 hours), 0. In addition, the “Primary irritation score, Total” value in data set [1] (0.1% soln, 1 hour) is 4.0; in data set [1] (0.1% soln, 3 hours), 4.0; in data set [1] (0.1% soln, 6 hours), 0; in data set [1] (0.1% soln, 24 hours), 0; in data set [1] (0.1% soln, 48 hours) it was 0; in data set [1] (0.1% soln, 72 hours) it was 0. The “Primary irritation score, Total” value is 0 in data set [1] (0.1% soln, 96 hours); 0 in data set [1] (0.1% soln, 168 hours); 18.3 in data set [1] (2.4% soln, 1 hour); 12.7 in data set [1] (2.4% soln, 3 hours); 11.3 in data set [1] (2.4% soln, 6 hours); 8.0 in data set [1] (2.4% soln, 24 hours). Moreover, the “Primary irritation score, Total” value is reported as 4.0 in data set [1] (2.4% soln, 48 hours); 2.7 in data set [1] (2.4% soln, 72 hours); 2.0 in data set [1] (2.4% soln, 96 hours); 0.7 in data set [1] (2.4% soln, 168 hours). Further, the “eye irritation (in words)” value in data set [1] (rabbit, in vivo) is on record as “fairly strong irritation”.
